In patent publication US10947229B2, “Dimethyl amino azetidine amides as JAK inhibitors” (THERAVANCE BIOPHARMA R&D IP, LLC, priority 2018, dated 2021):

Assays:
[1] = Lung S9 metabolism; format: in vitro ADME, human; conditions: for Compound Remaining at 60 min (%) / microsomal CLint at 1 µM: human lung S9, 1 μM compound, 1 mg/mL S9 protein; for Sulfate Appearance: human lung S9, qualitative O-sulfate metabolite peak; for microsomal CLint at 1 µM: human lung S9 fraction, pH 7.4, NADPH and PAPS, read-out: Clearance
Description: The time 0, 15, 30, and 60 minute samples were analyzed for parent compound by high resolution LC-MS/MS. Lung S9 fractions from human (lot 1410245) were purchased from XenoTech LLC (Lenexa, Kans.). NADPH (Sigma Aldrich, N1630) and 3-phosphoadenosine 5-phosphosulfate (PAPS) (Sigma Aldrich, A1651) were purchased from Sigma Aldrich (St. Louis, Mo.). Acetonitrile and water were obtained from VWR (Radnor, Pa.) and were of HPLC grade or better. Raloxifene and formic acid was purchased from Sigma Aldrich (St. Louis, Mo.). Lung S9 incubations were performed in a water bath at 37° C. in a 96-well polypropylene plate. […] Louis, Mo.), 3 mM magnesium chloride (Sigma Aldrich, M1028) and in the presence of 100 μM PAPS (Sigma-Aldrich, St. […] Incubation volumes consisted of 400 μL and time points were taken at 0, 15, 30, and 60 minutes by the removal of a 70 μL aliquot and dilution into 140 μL acetonitrile (0% formic acid). All samples were centrifuged at 2250 g for 10 minutes at 5° C. Supernatant […] was taken from the centrifuged samples and diluted into 100 μL HPLC water containing internal standard. The samples were run on a Dionex Ultimate 3000 Auto sampler and analyzed using a Thermo Q-Exactive High Resolution Mass Spectrometer (Thermo, Waltham, Mass.) in Full Scan mode in conjunction with an Atlantis T3 column 3 μM-2.1×50 mm (Waters Inc., 186003717). Mobile Phase A consisted of Water+0.2% formic acid and Mobile Phase B consisted of acetonitrile +0.2% formic acid. Peak integration was accomplished using Gubbs GMSU software (Gubbs Inc., Alpharetta, Ga.). For each sample, peak area ratios were calculated by dividing the analyte peak area by the internal standard peak area. For each incubation, the peak area ratios of the analytes in each t0 was set to 100%, and the peak areas ratios from the 60 minute samples were converted to percentages remaining relative to the corresponding t0. Determination of sulfate metabolite formation was made qualitatively by observation of early-eluting peak in the parent ion channel which, based on historical internal data, corresponded to the O-sulfate metabolite of each parent compound.

[2] = target: JAK1 (Homo sapiens (Human), UniProt P23458); assay: Biochemical JAK kinase assay (LanthaScreen), JAK1; conditions: read-out: JAK1 pKi (converted)
Sequence of JAK1 (P23458 whole entry): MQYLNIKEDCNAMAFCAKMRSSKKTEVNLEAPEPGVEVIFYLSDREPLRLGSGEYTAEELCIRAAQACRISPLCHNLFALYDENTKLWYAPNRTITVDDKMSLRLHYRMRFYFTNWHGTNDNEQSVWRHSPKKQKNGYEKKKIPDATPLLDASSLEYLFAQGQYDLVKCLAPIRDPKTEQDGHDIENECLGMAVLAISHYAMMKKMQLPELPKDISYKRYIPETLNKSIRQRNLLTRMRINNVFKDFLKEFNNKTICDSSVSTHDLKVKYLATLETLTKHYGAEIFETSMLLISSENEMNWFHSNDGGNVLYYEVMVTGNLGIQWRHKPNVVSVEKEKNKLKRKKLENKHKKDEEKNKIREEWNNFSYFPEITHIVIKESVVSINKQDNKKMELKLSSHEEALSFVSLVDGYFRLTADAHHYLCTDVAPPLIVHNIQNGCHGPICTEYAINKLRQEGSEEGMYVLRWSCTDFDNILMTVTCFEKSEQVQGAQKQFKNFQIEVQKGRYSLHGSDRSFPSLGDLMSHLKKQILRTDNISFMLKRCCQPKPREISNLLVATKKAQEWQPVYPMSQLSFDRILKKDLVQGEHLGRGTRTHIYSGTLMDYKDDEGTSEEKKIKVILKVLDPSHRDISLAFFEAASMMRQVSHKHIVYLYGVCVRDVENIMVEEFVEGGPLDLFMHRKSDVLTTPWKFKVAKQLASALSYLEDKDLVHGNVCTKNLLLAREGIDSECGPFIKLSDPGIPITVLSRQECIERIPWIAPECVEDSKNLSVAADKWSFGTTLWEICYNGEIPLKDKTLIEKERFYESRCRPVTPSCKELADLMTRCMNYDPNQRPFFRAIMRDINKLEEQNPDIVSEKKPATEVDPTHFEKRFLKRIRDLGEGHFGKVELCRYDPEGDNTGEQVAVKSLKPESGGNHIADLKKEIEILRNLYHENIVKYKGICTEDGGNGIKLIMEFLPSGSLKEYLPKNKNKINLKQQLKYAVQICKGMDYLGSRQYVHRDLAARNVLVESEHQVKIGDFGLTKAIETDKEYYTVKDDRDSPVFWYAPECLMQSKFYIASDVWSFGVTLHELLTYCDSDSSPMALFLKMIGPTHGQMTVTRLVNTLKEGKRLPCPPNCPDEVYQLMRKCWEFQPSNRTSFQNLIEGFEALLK
Description: (§1) Recombinant GST-tagged JAK enzymes and a GFP-tagged STAT1 peptide substrate were obtained from Life Technologies. Serially diluted compounds were pre-incubated with each of the four JAK enzymes and the substrate in white 384-well microplates (Corning) at ambient temperature for 1 h. ATP was subsequently added to initiate the kinase reactions in 10 μL total volume, with 1% DMSO. […] Kinase reactions were allowed to proceed for 1 hour at ambient temperature before a 10 μL preparation of EDTA (10 mM final concentration) and Tb-anti-pSTAT1 ([…]) antibody (Life Technologies, 2 nM final concentration) in TR-FRET dilution buffer (Life Technologies) was added. The plates were allowed to incubate at ambient temperature for 1 h before being read on the EnVision reader (Perkin Elmer). Emission ratio signals (520 nm/495 nm) were recorded and utilized to calculate the percent inhibition values based on DMSO and background controls. For dose-response analysis, percent inhibition data were plotted vs. compound concentrations, and IC50 values were determined from a 4-parameter robust fit model with the Prism software (GraphPad Software). Results were expressed as pIC50 (negative logarithm of IC50) and subsequently converted to pKi (negative logarithm of dissociation constant, Ki) using the Cheng-Prusoff equation.

[3] = target: JAK2 (Homo sapiens (Human), UniProt O60674); assay: Biochemical JAK kinase assay (LanthaScreen), JAK2; conditions: for Ki: read-out: JAK2 pKi (converted)
Sequence of JAK2 (O60674 whole entry): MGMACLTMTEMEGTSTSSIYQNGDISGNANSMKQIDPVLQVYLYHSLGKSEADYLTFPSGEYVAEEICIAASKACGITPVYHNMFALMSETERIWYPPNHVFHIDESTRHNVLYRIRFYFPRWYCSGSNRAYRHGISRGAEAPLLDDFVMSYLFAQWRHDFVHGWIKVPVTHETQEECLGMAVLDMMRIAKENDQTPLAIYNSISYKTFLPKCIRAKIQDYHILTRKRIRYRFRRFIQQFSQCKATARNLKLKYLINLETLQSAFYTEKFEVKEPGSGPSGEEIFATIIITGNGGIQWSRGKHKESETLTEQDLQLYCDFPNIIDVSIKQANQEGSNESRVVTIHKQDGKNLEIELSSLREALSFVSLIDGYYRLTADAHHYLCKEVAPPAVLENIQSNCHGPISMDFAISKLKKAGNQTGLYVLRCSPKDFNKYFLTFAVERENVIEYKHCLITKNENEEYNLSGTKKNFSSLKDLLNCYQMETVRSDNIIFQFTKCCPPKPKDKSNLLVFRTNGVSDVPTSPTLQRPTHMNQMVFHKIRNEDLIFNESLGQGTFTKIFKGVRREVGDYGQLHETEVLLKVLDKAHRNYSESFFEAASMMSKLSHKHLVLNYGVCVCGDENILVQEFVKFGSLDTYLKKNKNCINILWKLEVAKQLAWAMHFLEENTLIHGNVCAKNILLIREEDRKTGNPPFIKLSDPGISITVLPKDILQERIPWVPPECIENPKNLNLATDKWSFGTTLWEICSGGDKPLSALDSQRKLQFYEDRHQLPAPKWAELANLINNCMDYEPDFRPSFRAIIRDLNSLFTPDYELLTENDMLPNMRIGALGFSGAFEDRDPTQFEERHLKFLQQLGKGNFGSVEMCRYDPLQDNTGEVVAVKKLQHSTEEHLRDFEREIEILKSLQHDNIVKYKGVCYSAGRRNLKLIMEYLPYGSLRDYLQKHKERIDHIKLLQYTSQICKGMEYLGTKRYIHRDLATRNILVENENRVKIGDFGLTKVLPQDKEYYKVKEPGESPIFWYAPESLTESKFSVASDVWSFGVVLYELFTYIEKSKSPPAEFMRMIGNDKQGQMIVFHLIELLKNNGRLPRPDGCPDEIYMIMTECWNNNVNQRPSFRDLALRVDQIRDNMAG
Description: as §1, with “equation. Test compounds having a lower Ki value or higher pKi value in the four JAK assays show greater inhibition of JAK activity.” for “equation.”

[4] = test system: IL-2 stimulated pSTAT5 in Tall-1 T cells; assay: Inhibition of IL-2 stimulated pSTAT5 in Tall-1 T cells; format: cell-based; conditions: IL-2 stimulated pSTAT5, Tall-1 human T cell line; read-out: Tall-1 pIC50 (converted)
Description: The potency of test compounds for inhibition of interleukin-2 (IL-2) stimulated STAT5 phosphorylation was measured in the Tall-1 human T cell line (DSMZ) using AlphaLisa. Because IL-2 signals through JAK1/3, this assay provides a measure of JAK1/3 cellular potency.
Phosphorylated STAT5 was measured via the AlphaLISA SureFire Ultra pSTAT5 (Tyr694/699) kit (PerkinElmer).
Human T cells from the Tall-1 cell line were cultured in a 37° C., 5% CO2 humidified incubator in RPMI (Life Technologies) supplemented with 15% Heat Inactivated Fetal Bovine Serum (FBS, Life Technologies), 2 mM Glutamax (Life Technologies), 25 mM HEPES (Life Technologies) and 1× Pen/Strep (Life Technologies). Compounds were serially diluted in DMSO and dispensed acoustically to empty wells. Assay media (phenol red-free DMEM (Life Technologies) supplemented with 10% FBS (ATCC)) was dispensed (4 μL/well) and plates shaken at 900 rpm for 10 mins. Cells were seeded at 45,000 cells/well in assay media (4 μL/well), and incubated at 37° C., 5% CO2 for 1 hour, followed by the addition of IL-2 (R&D Systems; final concentration 300 ng/mL) in pre-warmed assay media (4 μL) for 30 minutes. After cytokine stimulation, cells were lysed with 6 ul of 3× AlphaLisa Lysis Buffer (PerkinElmer) containing 1× PhosStop and Complete tablets (Roche). The lysate was shaken at 900 rpm for 10 minutes at room temperature (RT). Phosphorylated STAT5 was measured via the pSTAT5 AlphaLisa kit (PerkinElmer). Freshly prepared acceptor bead mixture was dispensed onto lysate (5 μL) under green filtered <100 lux light. Plates were shaken at 900 rpm for 2 mins, briefly spun down, and incubated for 2 hrs at RT in the dark. Donor beads were dispensed (5 μL) under green filtered <100 lux light. Plates were shaken at 900 rpm for 2 minutes, briefly spun down, and incubated overnight at RT in the dark. Luminescence was measured with excitation at 689 nm and emission at 570 nm using an EnVision plate reader (PerkinElmer) under green filtered <100 lux light.
To determine the inhibitory potency of test compounds in response to IL-2, the average emission intensity of beads bound to pSTAT5 was measured in a human T cell line. IC50 values were determined from analysis of the inhibition curves of signal intensity versus compound concentration. Data are expressed as pIC50 (negative decadic logarithm IC50) values (mean±standard deviation).

[5] = target: Tyk2 (Homo sapiens (Human), UniProt P29597); assay: Biochemical JAK kinase assay (LanthaScreen), Tyk2
Sequence of Tyk2 (P29597 whole entry): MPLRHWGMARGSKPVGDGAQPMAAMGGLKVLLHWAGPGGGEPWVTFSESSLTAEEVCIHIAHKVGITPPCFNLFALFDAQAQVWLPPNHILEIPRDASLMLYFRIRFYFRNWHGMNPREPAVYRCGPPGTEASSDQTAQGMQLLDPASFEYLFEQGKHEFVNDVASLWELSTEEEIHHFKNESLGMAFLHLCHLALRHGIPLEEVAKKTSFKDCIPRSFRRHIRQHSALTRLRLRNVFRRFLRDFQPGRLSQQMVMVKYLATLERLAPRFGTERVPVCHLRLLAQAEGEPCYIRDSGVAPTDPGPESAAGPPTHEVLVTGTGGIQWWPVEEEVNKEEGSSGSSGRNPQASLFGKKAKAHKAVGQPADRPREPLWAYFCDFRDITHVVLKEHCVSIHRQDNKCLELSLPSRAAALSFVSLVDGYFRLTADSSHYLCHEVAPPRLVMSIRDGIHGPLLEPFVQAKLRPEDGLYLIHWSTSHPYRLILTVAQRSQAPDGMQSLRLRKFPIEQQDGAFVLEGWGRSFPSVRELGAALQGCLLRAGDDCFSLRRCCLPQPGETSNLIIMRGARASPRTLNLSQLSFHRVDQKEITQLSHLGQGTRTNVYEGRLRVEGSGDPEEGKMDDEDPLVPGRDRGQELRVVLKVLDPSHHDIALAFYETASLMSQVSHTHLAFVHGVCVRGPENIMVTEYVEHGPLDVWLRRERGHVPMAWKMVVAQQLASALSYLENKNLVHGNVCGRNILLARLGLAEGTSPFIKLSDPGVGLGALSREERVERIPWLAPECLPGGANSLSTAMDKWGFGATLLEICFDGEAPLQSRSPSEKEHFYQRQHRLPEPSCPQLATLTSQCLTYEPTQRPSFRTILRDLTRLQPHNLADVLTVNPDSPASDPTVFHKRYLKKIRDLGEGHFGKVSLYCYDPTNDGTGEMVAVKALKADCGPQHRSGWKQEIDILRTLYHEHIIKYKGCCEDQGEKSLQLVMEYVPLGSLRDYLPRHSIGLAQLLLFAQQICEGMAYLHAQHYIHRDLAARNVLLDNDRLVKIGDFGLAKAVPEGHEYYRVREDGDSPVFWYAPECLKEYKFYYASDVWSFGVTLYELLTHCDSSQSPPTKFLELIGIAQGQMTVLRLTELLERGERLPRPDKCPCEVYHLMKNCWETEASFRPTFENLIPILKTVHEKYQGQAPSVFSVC
Description: as §1

| Compound Remaining at 60 min (%) [1] | Sulfate Appearance [1] | microsomal CLint at 1 µM [1] | Structure (SMILES) | Ki [2] | Ki [3] | IC50 [4] | Tyk2 pKi [5] | JAK2 pKi [3] |
| --- | --- | --- | --- | --- | --- | --- | --- | --- |
| 98% | Yes | 0.6 µL/min/mg | CCc1cc(O)ccc1-c1ccc2c(-c3nc4c([nH]3)CN(CC)[C@H](C(=O)N3CC(N(C)C)C3)C4)n[nH]c2c1 [Compound 2, (S)-(3-(dimethylamino)azetidin-1-yl)(5-ethyl-2-(6-(2-ethyl-4-hydroxyphenyl)-1H-indazol-3-yl)-4,5,6,7-tetrahydro-3H-imidazo[4,5-c]pyridin-6-yl)methanone] |  |  |  |  |  |
| 97% | Yes | 0.8 µL/min/mg | CCc1cc(O)ccc1-c1ccc2c(-c3nc4c([nH]3)CN(CC)[C@H](C(=O)N3CC(C)(N(C)C)C3)C4)n[nH]c2c1 [Compound 3, (S)-(3-(dimethylamino)-3-methylazetidin-1-yl)(5-ethyl-2-(6-(2-ethyl-4-hydroxyphenyl)-1H-indazol-3-yl)-4,5,6,7-tetrahydro-3H-imidazo[4,5-c]pyridin-6-yl)methanone] |  |  |  |  |  |
| 100% | Yes |  | CCc1cc(O)ccc1-c1ccc2c(-c3nc4c([nH]3)CN(C(C)C)[C@H](C(=O)N3CC(C)(N(C)C)C3)C4)n[nH]c2c1 [Compound 4, (S)-(3-(dimethylamino)-3-methylazetidin-1-yl)(2-(6-(2-ethyl-4-hydroxyphenyl)-1H-indazol-3-yl)-5-isopropyl-4,5,6,7-tetrahydro-3H-imidazo[4,5-c]pyridin-6-yl)methanone] |  |  |  |  |  |
| 96% | Yes | 1.6 µL/min/mg | CCCN1Cc2[nH]c(-c3n[nH]c4cc(-c5ccc(O)cc5CC)ccc34)nc2C[C@H]1C(=O)N1CC(N(C)C)C1 [Compound 5, (S)-(3-(dimethylamino)azetidin-1-yl)(2-(6-(2-ethyl-4-hydroxyphenyl)-1H-indazol-3-yl)-5-propyl-4,5,6,7-tetrahydro-3H-imidazo[4,5-c]pyridin-6-yl)methanone] | 0.0316 nM |  |  |  |  |
| 90% | Yes | 1.8 µL/min/mg | CCCN1Cc2[nH]c(-c3n[nH]c4cc(-c5ccc(O)cc5CC)ccc34)nc2C[C@H]1C(=O)N1CC(C)(N(C)C)C1 [Compound 6, (S)-(3-(dimethylamino)-3-methylazetidin-1-yl)(2-(6-(2-ethyl-4-hydroxyphenyl)-1H-indazol-3-yl)-5-propyl-4,5,6,7-tetrahydro-3H-imidazo[4,5-c]pyridin-6-yl)methanone] |  | 0.0316 nM |  |  |  |
| 6% | Yes | 49 µL/min/mg | CCc1cc(O)c(F)cc1-c1ccc2c(-c3nc4c([nH]3)CN(C(C)C)[C@H](C(=O)N3CC(N(C)C)C3)C4)n[nH]c2c1 [Compound C-1, (S)-(3-(dimethylamino)azetidin-1-yl)(2-(6-(2-ethyl-5-fluoro-4-hydroxyphenyl)-1H-indazol-3-yl)-5-isopropyl-4,5,6,7-tetrahydro-3H-imidazo[4,5-c]pyridin-6-yl)methanone] |  |  |  |  |  |

| Structure (SMILES) | Compound Remaining at 60 min (%) [1] | Sulfate Appearance [1] | microsomal CLint at 1 µM [1] | Ki [2] | Ki [3] | IC50 [4] | Tyk2 pKi [5] | JAK2 pKi [3] |
| --- | --- | --- | --- | --- | --- | --- | --- | --- |
| CCc1cc(O)c(F)cc1-c1ccc2c(-c3nc4c([nH]3)CN(CC)[C@H](C(=O)N3CC(C)(N(C)C)C3)C4)n[nH]c2c1 [Compound C-3, (S)-(3-(dimethylamino)-3-methylazetidin-1-yl)(5-ethyl-2-(6-(2-ethyl-5-fluoro-4-hydroxyphenyl)-1H-indazol-3-yl)-4,5,6,7-tetrahydro-3H-imidazo[4,5-c]pyridin-6-yl)methanone] | 5% | Yes | 50.6 µL/min/mg |  |  | 2 nM | 9.4 | 10.9 |
| CCc1cc(O)c(F)cc1-c1ccc2c(-c3nc4c([nH]3)CN(C(C)C)[C@H](C(=O)N3CC(C)(N(C)C)C3)C4)n[nH]c2c1 [Compound C-4, (S)-(3-(dimethylamino)-3-methylazetidin-1-yl)(2-(6-(2-ethyl-5-fluoro-4-hydroxyphenyl)-1H-indazol-3-yl)-5-isopropyl-4,5,6,7-tetrahydro-3H-imidazo[4,5-c]pyridin-6-yl)methanone] | 4% | Yes | 53.2 µL/min/mg | 0.0794 nM | 0.0126 nM | 2.51 nM |  |  |
| CCCN1Cc2[nH]c(-c3n[nH]c4cc(-c5cc(F)c(O)cc5CC)ccc34)nc2C[C@H]1C(=O)N1CC(C)(N(C)C)C1 [Compound C-6, (S)-(3-(dimethylamino)-3-methylazetidin-1-yl)(2-(6-(2-ethyl-5-fluoro-4-hydroxyphenyl)-1H-indazol-3-yl)-5-propyl-4,5,6,7-tetrahydro-3H-imidazo[4,5-c]pyridin-6-yl)methanone] | 4% | Yes | 53.5 µL/min/mg |  |  | 2.51 nM |  | 10.7 |
